# In US20210338654A1 (priority 2019, published 2021):
# Values joined by “and” are separate entries in the source; they are usually repeats but may differ in a detail not shown here. Identical values can stand only once.
# Tests used:
# [1] = tested on: breakthrough migraine in patients treated with botulinum toxin (Botox); settings: human, in vivo
# [2] = tested on: migraine attack of moderate or severe intensity in adults; type: in vivo, human
# patients with migraine = settings: in vivo
# [3] = tested on: breakthrough migraine in patient treated with fremanezumab; settings: human, in vivo
# [4] = tested on: breakthrough migraine in patients treated with erenumab-aooe; settings: human, in vivo
molecule,measurement,setting,value
"CN(C)CCc1c[nH]c2ccc(C[C@H]3COC(=O)N3)cc12 [Zomig®, reference compound]",effect on migraines (patient history),[1],would decrease in intensity but they would not attain freedom from pain within 24 hrs
"N[C@@H]1c2cccnc2[C@H](OC(=O)N2CCC(n3c(=O)[nH]c4ncccc43)CC2)CC[C@H]1c1cccc(F)c1F [Rimegepant, [(5S,6S,9R)-5-amino-6-(2,3-difluorophenyl)-6,7,8,9-tetrahydro-5H-cyclohepta[b]pyridin-9-yl] 4-(2-oxo-3H-imidazo[4,5-b]pyridin-1-yl)piperidine-1-carboxylate]","N. Censored (no pain score of none by 495 minutes postdose, censored at 496 minutes)",[2]; N = 537,139
same,"Freedom from most bothersome symptom at two hours postdose, Common Risk",[2]; in vivo,41.2%
same,"Freedom from most bothersome symptom at two hours postdose, Free from MBS n/N",[2]; in vivo,31/89 and 171/448 and 202/537
same,"Freedom from most bothersome symptom at two hours postdose, Stratum Risk",[2]; in vivo,40.3% and 41.4%
same,"Pain freedom at two hours postdose, Common Risk",[2]; in vivo,20.2%
same,"Pain freedom at two hours postdose, No Pain n/N",[2]; in vivo,14/89 and 91/448 and 105/537
same,"Pain freedom at two hours postdose, Risk Difference Rimegepant vs Placebo",[2]; in vivo,7.82 and 7.36 and 7.91
same,"Pain freedom at two hours postdose, Stratum Risk",[2]; in vivo,16.7% and 20.9%
same,incidence of serum ALT or AST >3×ULN,patients with migraine; human,1.0%
same,Hy's Law cases,patients with migraine,no Hy's Law cases identified
same,liver cases assessed as probably related to study drug,patients with migraine,no liver cases assessed as probably related to study drug
same,liver safety signal,patients with migraine,no liver safety signal detected to date
same,mean reduction in headaches/month,patients with migraine,4 days
same,patients with at least 30% reduction in monthly number of headache days,patients with migraine,Approximately 40%
same,migraine breakthroughs successfully treated,[3],three migraine breakthroughs that were successfully treated
same,Preference of Medication response,[4],"Much better, I prefer this medication."
same,Satisfaction with Medication (SM) response,[4],Very satisfied.
same,"acute treatment of breakthrough migraine, outcome",[4],effective
same,adverse events,[4],no adverse events
same,adverse events related to treatment,[4],no adverse events related to treatment
same,"adverse events while receiving rimegepant alone (streptococcal pharyngitis, considered unrelated)",[4],1
same,rating versus previous treatments,[4],much better
same,relief from breakthrough migraine headache,[4],obtained relief from the migraine headache without the need to take other medications
same,satisfaction with rimegepant at end-of-study visit,[4],very satisfied
same,adverse effects from treatment,[1],did not report any adverse effects
same,need for rescue medication,[1],did not require any rescue medications or additional doses of rimegepant
same,number of headache days (parent report),[1],noticeable reduction in the number of headache days
same,relief from breakthrough migraine headache,[1],obtained relief from the migraine headache without the need to take other medications
same,resolution of Botox induced headache,[1],completely resolved within an hour
same,time to full resolution of headache,[1],≤ 1 h
same,time to pain relief,[1],within a half an hour
"erenumab (antibody, chains of the INN, looked up, V domains shown) VH: QVQLVESGGGVVQPGRSLRLSCAASGFTFSSFGMHWVRQAPGKGLEWVAVISFDGSIKYSVDSVKGRFTISRDNSKNTLFLQMNSLRAEDTAVYYCARDRLNYYDSSGYYHYKYYGMAVWGQGTTVTVSS VL: QSVLTQPPSVSAAPGQKVTISCSGSSSNIGNNYVSWYQQLPGTAPKLLIYDNNKRPSGIPDRFSGSKSGTSTTLGITGLQTGDEADYYCGTWDSRLSAVVFGGGTKLTVL",decline in monthly migraine days (MMDs),[4],46%
same,monthly migraine days of any pain intensity after starting erenumab,[4],7 MMDs
